# According to patent US20210085686A1, “DELIVERY OF ACTIVE AGENTS USING NANOFIBER WEBS” (CorMedix Inc., priority 2015, published 2021):
# Columns and labels:
# [1] = maximum solubility of taurolidine in HFP (preliminary testing); type: physicochemical; conditions: organic solvent or mixture; solvent 1,1,1,3,3,3-hexafluoro-2-propanol (HFP)
# Protocol: All of the polymers and the taurolidine were dissolved in 1,1,1,3,3,3-hexafluoro-2-propanol (HFP; Oakwood Chemical) for processing into small diameter (SD) and large diameter (LD) fibers. […] Thus, for preliminary testing, the taurolidine concentration in the electrospinning solutions was maintained at approximately 100 mg/ml.
# [2] = system: Microbes; conditions: microbes killed and toxins inactivated; cited from earlier work
compound,measurement,setting,value
"O=S1(=O)CCN(CN2CCS(=O)(=O)NC2)CN1 [taurolidine, bis(1,1-dioxoperhydro-1,2,4-thiadiazinyl-4)-methane]",solubility,[1],~218 mg/mL
same,destruction time in vitro,[2],30 min
